In patent US20250243488A1, “METHODS OF MODULATING PROGRANULIN EXPRESSION USING ANTISENSE OLIGONUCLEOTIDES TARGETING REGULATORY RNAS” (Camp4 Therapeutics Corporation, priority 2022, published 2025):
Oligonucleotides are written 5' to 3', each unit as a sugar letter and its base; * is a phosphorothioate linkage, no mark a phosphodiester; rarer units and linkages stand in square brackets, end groups in braces. Plain capitals give the bases only. e = 2'-O-(2-methoxyethyl) (MOE); l = locked nucleic acid (LNA); [5mC] = 5-methylcytosine; d = 2'-deoxy (DNA)

How the values were obtained:
Grn mRNA = test: In vivo Grn mRNA in brain regions of C57/BL6 mice after ASO injection into lateral ventricle; design: species or system mouse; conditions: 300 μg into right lateral ventricle, day 28, cortex, hippocampus, striatum (FIG. 16)
Protocol: ASO-mediated upregulation of progranulin in different brain regions in vivo was determined. ASO CO-3544 (300 μg) in PBS was injected into right lateral ventricle of 8-week-old C57/BL6 mice. A steric nontargeting control ASO (CO-1929), and vehicle (PBS) control were used as controls. Mice were sacrificed at day 28 post-injection. Tissue samples (cortex, hippocampus and striatum) were collected and processed for total RNA and protein extraction as described above. Mouse Grn mRNA quantification was performed using real time qPCR assay.

mGrn mRNA [1] = test: mGrn mRNA qPCR in Neuro2a cells transfected with ASOs; format: cell-based, mouse; conditions: Neuro2a
mGrn mRNA [2] = test: In vivo mGrn mRNA in heterozygous Grn^tm1.1Far mice after ICV injection; design: species or system mouse
Protocol: (§1) Grn^tm1.1Far (B6.129S4(FVB)-Grn^tm1.1Far/Mmjax; The Jackson Laboratory, Cat. No. MMRRC Strain #036771-JAX) heterozygous mice were used to assess the efficacy of CO-3544 and CO-10691 to upregulate mGrn in vivo. These mice have deletion of exon 2-13 of the mouse Grn gene. CO-3544 and CO-10691 target mouse Grn paRNA.
(§2) Mice were injected ICV with 5 μL of artificial CSF (aCSF; vehicle control), 300 μg of ASO CO-3544, or 200 μg of ASO CO-10691, each in aCSF, at a rate of 1 μL/min. For ASO CO-3544, mice were sacrificed 4 weeks post-dose for analyses. For CO-10691, mice were sacrificed 2 and 4 weeks post-dose for analyses. Mouse brain sections were processed, and Pgrn protein and Grn mRNA quantified, as described above.

Pgrn protein = test: In vivo Pgrn protein in heterozygous Grn^tm1.1Far mice after ICV injection (ELISA); design: species or system mouse; conditions: ICV 200 μg, 2 and 4 weeks (FIG. 24)
Protocol: as §1, §2

Row | Substance | Grn mRNA levels increase across different brain regions (Grn mRNA) | mGrn mRNA upregulation (mGrn mRNA [1]; dose-dependent, normalized to sNTC3 (FIG. 13)) | mGRN mRNA FC (mGrn mRNA [1]; Table 14, 100 nM, 48 hours, normalized to sNTC3) [FC] | 40 nM FC (mGrn mRNA) (mGrn mRNA [1]; Table 15, 40 nM, transfection) [FC] | 80 nM FC (mGrn mRNA) (mGrn mRNA [1]; Table 15, 80 nM, transfection) [FC] | 160 nM FC (mGrn mRNA) (mGrn mRNA [1]; Table 15, 160 nM, transfection) [FC] | increase in Grn mRNA expression as compared to aCSF (mGrn mRNA [2]; heterozygous Grn^tm1.1Far mice, ICV 300 μg, 4 weeks (FIG. 22A)) | murine Pgrn protein expression as compared to aCSF (Pgrn protein) | mGrn mRNA expression as compared to aCSF (mGrn mRNA [2]; Grn^tm1.1Far mice, ICV 200 μg, 2 and 4 weeks, cortex, hippocampus, striatum, cerebellum (FIGS. 23A-D))
1 | CO-3544: ASO targeting the mouse Grn promoter (− strand); targets mouse Grn paRNA (antisense eG*eT*eT*e[5mC]*eT*e[5mC]*e[5mC]*e[5mC]*eT*eA*eG*e[5mC]*eT*eG*eT*eG*eT*eA*eG*eT) | greater than 1.5 fold | up to 1.5 fold | 1.1 | 1.2 | 1.3 | 1.4 | up to 1.5 fold | – | –
2 | CO-10691: ASO that targets mouse Grn paRNA (antisense eG*eT*lA*eG*lA*dG*dA*d[5mC]*dA*d[5mC]*d[5mC]*dT*d[5mC]*d[5mC]*d[5mC]*l[5mC]*eG*l[5mC]*eA*e[5mC]) | – | – | – | – | – | – | – | upregulated | upregulated
